Test results reported in the supplement of paper PMC10307832.

Tests used:
Assay in all cases: relative viability (nuclei count vs DMSO), 5 days (fraction); higher = more cells survive
NCI-H1792 = test system: NCI-H1792
In short: (§1)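 Lung cancer cell lines were pin-tool dosed in 1536-well plates on the day after seeding, with either a lone drug or a fixed anchor-drug dose plus five library-drug doses (not always all listed) in √10 steps. Nuclei were counted on 4× images after 5 days. Relative viability is the ratio of treated-well to vehicle-well nuclei counts, with each value a median of duplicate plates.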

HCC-827 = test system: HCC-827
In short: as §1

EKVX = test system: EKVX
In short: as §1

NCI-H2009 = test system: NCI-H2009
In short: as §1

NCI-H2087 = test system: NCI-H2087
In short: as §1

NCI-H2405 = test system: NCI-H2405
In short: as §1

NCI-H2170 = test system: NCI-H2170
In short: as §1

LC-2-ad = test system: LC-2-ad
In short: as §1

BEN = test system: BEN
In short: as §1

NCI-H2342 = test system: NCI-H2342
In short: as §1

SK-MES-1 = test system: SK-MES-1
In short: as §1

NCI-H1734 = test system: NCI-H1734
In short: as §1

NCI-H1395 = test system: NCI-H1395
In short: as §1

NCI-H1355 = test system: NCI-H1355
In short: as §1

HCC-366 = test system: HCC-366
In short: as §1

NCI-H2228 = test system: NCI-H2228
In short: as §1

NCI-H596 = test system: NCI-H596
In short: as §1

HARA = test system: HARA
In short: as §1

NCI-H647 = test system: NCI-H647
In short: as §1

SK-LU-1 = test system: SK-LU-1
In short: as §1

LOU-NH91 = test system: LOU-NH91
In short: as §1

NCI-H661 = test system: NCI-H661
In short: as §1

NCI-H1437 = test system: NCI-H1437
In short: as §1

Work on NC(=O)Nc1cc(-c2cccc(F)c2)sc1C(=O)N[C@H]1CCCNC1 [AZD7762] + Nc1nc2[nH]cc(CCc3ccc(C(=O)N[C@@H](CCC(=O)O)C(=O)O)cc3)c2c(=O)[nH]1 [Pemetrexed] (partner 0.2 µM) yielded a relative viability (NCI-H1792; first compound 0.01 µM) of 0.957, a relative viability (NCI-H1792; first compound 0.03162 µM) of 0.822 and a relative viability (NCI-H1792; first compound 0.1 µM) of 0.844. For the same compound, the relative viability (NCI-H1792; first compound 0.3162 µM) was 0.732, the relative viability (NCI-H1792; first compound 1 µM) was 0.421 and the relative viability (HCC-827; first compound 0.01 µM) was 0.301. It also gave a relative viability (HCC-827; first compound 0.03162 µM) of 0.257, a relative viability (HCC-827; first compound 0.1 µM) of 0.211 and a relative viability (HCC-827; first compound 0.3162 µM) of 0.192. It also gave a relative viability (HCC-827; first compound 1 µM) of 0.148, a relative viability (EKVX; first compound 0.01 µM) of 0.394 and a relative viability (EKVX; first compound 0.03162 µM) of 0.346. For the same compound, the relative viability (EKVX; first compound 0.1 µM) was 0.248, the relative viability (EKVX; first compound 0.3162 µM) was 0.208 and the relative viability (EKVX; first compound 1 µM) was 0.152. The relative viability (NCI-H2009; first compound 0.01 µM) was 1, the relative viability (NCI-H2009; first compound 0.03162 µM) was 1.02 and the relative viability (NCI-H2009; first compound 0.1 µM) was 1.03. It also gave a relative viability (NCI-H2009; first compound 0.3162 µM) of 0.888, a relative viability (NCI-H2009; first compound 1 µM) of 0.783 and a relative viability (NCI-H2087; first compound 0.01 µM) of 0.718. For the same compound, the relative viability (NCI-H2087; first compound 0.03162 µM) was 0.654, the relative viability (NCI-H2087; first compound 0.1 µM) was 0.714 and the relative viability (NCI-H2087; first compound 0.3162 µM) was 0.66. For the same compound, the relative viability (NCI-H2087; first compound 1 µM) was 0.692, the relative viability (NCI-H2405; first compound 0.01 µM) was 0.998 and the relative viability (NCI-H2405; first compound 0.03162 µM) was 1.25. The relative viability (NCI-H2405; first compound 0.1 µM) was 0.927, the relative viability (NCI-H2405; first compound 0.3162 µM) was 1 and the relative viability (NCI-H2405; first compound 1 µM) was 0.466. For the same compound, the relative viability (NCI-H2170; first compound 0.01 µM) was 0.272, the relative viability (NCI-H2170; first compound 0.03162 µM) was 0.264 and the relative viability (NCI-H2170; first compound 0.1 µM) was 0.285. It also gave a relative viability (NCI-H2170; first compound 0.3162 µM) of 0.236, a relative viability (NCI-H2170; first compound 1 µM) of 0.21 and a relative viability (LC-2-ad; first compound 0.01 µM) of 0.3. The relative viability (LC-2-ad; first compound 0.03162 µM) was 0.277, the relative viability (LC-2-ad; first compound 0.1 µM) was 0.277 and the relative viability (LC-2-ad; first compound 0.3162 µM) was 0.229. The relative viability (LC-2-ad; first compound 1 µM) was 0.241, the relative viability (BEN; first compound 0.01 µM) was 0.804 and the relative viability (BEN; first compound 0.03162 µM) was 0.902. For the same compound, the relative viability (BEN; first compound 0.1 µM) was 0.757, the relative viability (BEN; first compound 0.3162 µM) was 0.809 and the relative viability (BEN; first compound 1 µM) was 0.606. It also gave a relative viability (NCI-H2342; first compound 0.01 µM) of 0.784, a relative viability (NCI-H2342; first compound 0.03162 µM) of 0.797 and a relative viability (NCI-H2342; first compound 0.1 µM) of 0.78. It also gave a relative viability (NCI-H2342; first compound 0.3162 µM) of 0.755, a relative viability (NCI-H2342; first compound 1 µM) of 0.669 and a relative viability (SK-MES-1; first compound 0.01 µM) of 1.01. It also gave a relative viability (SK-MES-1; first compound 0.03162 µM) of 0.914, a relative viability (SK-MES-1; first compound 0.1 µM) of 0.86 and a relative viability (SK-MES-1; first compound 0.3162 µM) of 0.433. For the same compound, the relative viability (SK-MES-1; first compound 1 µM) was 0.237, the relative viability (NCI-H1734; first compound 0.01 µM) was 0.398 and the relative viability (NCI-H1734; first compound 0.03162 µM) was 0.353. For the same compound, the relative viability (NCI-H1734; first compound 0.1 µM) was 0.334, the relative viability (NCI-H1734; first compound 0.3162 µM) was 0.303 and the relative viability (NCI-H1734; first compound 1 µM) was 0.28. The relative viability (NCI-H1395; first compound 0.01 µM) was 0.847, the relative viability (NCI-H1395; first compound 0.03162 µM) was 0.768 and the relative viability (NCI-H1395; first compound 0.1 µM) was 0.641. It also gave a relative viability (NCI-H1395; first compound 0.3162 µM) of 0.401, a relative viability (NCI-H1395; first compound 1 µM) of 0.306 and a relative viability (NCI-H1355; first compound 0.01 µM) of 1.07. For the same compound, the relative viability (NCI-H1355; first compound 0.03162 µM) was 1.03, the relative viability (NCI-H1355; first compound 0.1 µM) was 1.08 and the relative viability (NCI-H1355; first compound 0.3162 µM) was 0.708. It also gave a relative viability (NCI-H1355; first compound 1 µM) of 0.709, a relative viability (HCC-366; first compound 0.01 µM) of 0.195 and a relative viability (HCC-366; first compound 0.03162 µM) of 0.11. It also gave a relative viability (HCC-366; first compound 0.1 µM) of 0.0981, a relative viability (HCC-366; first compound 0.3162 µM) of 0.0668 and a relative viability (HCC-366; first compound 1 µM) of 0.0716. For the same compound, the relative viability (NCI-H2228; first compound 0.01 µM) was 0.279, the relative viability (NCI-H2228; first compound 0.03162 µM) was 0.328 and the relative viability (NCI-H2228; first compound 0.1 µM) was 0.293. It also gave a relative viability (NCI-H2228; first compound 0.3162 µM) of 0.299, a relative viability (NCI-H2228; first compound 1 µM) of 0.2 and a relative viability (NCI-H596; first compound 0.01 µM) of 0.484. For the same compound, the relative viability (NCI-H596; first compound 0.03162 µM) was 0.573, the relative viability (NCI-H596; first compound 0.1 µM) was 0.54 and the relative viability (NCI-H596; first compound 0.3162 µM) was 0.425. For the same compound, the relative viability (NCI-H596; first compound 1 µM) was 0.393, the relative viability (HARA; first compound 0.01 µM) was 0.23 and the relative viability (HARA; first compound 0.03162 µM) was 0.25. It also gave a relative viability (HARA; first compound 0.1 µM) of 0.198, a relative viability (HARA; first compound 0.3162 µM) of 0.16 and a relative viability (HARA; first compound 1 µM) of 0.164. For the same compound, the relative viability (NCI-H647; first compound 0.01 µM) was 0.146, the relative viability (NCI-H647; first compound 0.03162 µM) was 0.128 and the relative viability (NCI-H647; first compound 0.1 µM) was 0.108. It also gave a relative viability (NCI-H647; first compound 0.3162 µM) of 0.0887, a relative viability (NCI-H647; first compound 1 µM) of 0.0641 and a relative viability (SK-LU-1; first compound 0.01 µM) of 1.14. For the same compound, the relative viability (SK-LU-1; first compound 0.03162 µM) was 0.776, the relative viability (SK-LU-1; first compound 0.1 µM) was 0.698 and the relative viability (SK-LU-1; first compound 0.3162 µM) was 0.299. The relative viability (SK-LU-1; first compound 1 µM) was 0.238, the relative viability (LOU-NH91; first compound 0.01 µM) was 0.437 and the relative viability (LOU-NH91; first compound 0.03162 µM) was 0.306. It also gave a relative viability (LOU-NH91; first compound 0.1 µM) of 0.335, a relative viability (LOU-NH91; first compound 0.3162 µM) of 0.359 and a relative viability (LOU-NH91; first compound 1 µM) of 0.349. The relative viability (NCI-H661; first compound 0.01 µM) was 0.935, the relative viability (NCI-H661; first compound 0.03162 µM) was 0.739 and the relative viability (NCI-H661; first compound 0.1 µM) was 0.597. The relative viability (NCI-H661; first compound 0.3162 µM) was 0.49, the relative viability (NCI-H661; first compound 1 µM) was 0.426 and the relative viability (NCI-H1437; first compound 0.01 µM) was 0.298. For the same compound, the relative viability (NCI-H1437; first compound 0.03162 µM) was 0.261, the relative viability (NCI-H1437; first compound 0.1 µM) was 0.229 and the relative viability (NCI-H1437; first compound 0.3162 µM) was 0.206. For the same compound, the relative viability (NCI-H1437; first compound 1 µM) was 0.172.
